{"source": "paper PMC2810552", "about": "(Journal of medicinal chemistry, 2009)", "key": {"[1]": {"biological_target": "T1, Gal4DBD-GRLBD-VP16 fusion protein in HeLa cells (Homo sapiens, UniProt P04150)", "T1 sequence (P04150 524-758 limits assumed)": "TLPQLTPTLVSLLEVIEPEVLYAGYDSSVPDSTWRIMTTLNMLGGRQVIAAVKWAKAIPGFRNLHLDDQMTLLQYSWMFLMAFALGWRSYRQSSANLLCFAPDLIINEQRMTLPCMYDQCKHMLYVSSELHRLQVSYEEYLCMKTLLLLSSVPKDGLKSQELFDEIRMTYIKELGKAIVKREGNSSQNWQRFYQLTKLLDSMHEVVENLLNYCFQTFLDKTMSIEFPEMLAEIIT", "assay_type": "cell-based", "conditions": "for Luc activity induced (in words): up to 6 µM"}, "[2]": {"biological_target": "T2, breast cancer cell line MCF7 (Homo sapiens, UniProt P04150)", "T2 sequence (P04150 524-758 limits assumed)": "T1 sequence (P04150 524-758 limits assumed)", "assay": "Cell-based functional permeability assay: luciferase reporter in MCF7 cells"}, "[3]": {"assay": "Solubility limit observed in the Luc assay", "assay_type": "physicochemical", "conditions": "cell-based Luc induction (reporter) assay in HeLa cells"}, "[4]": {"biological_target": "T1, Gal4DBD-GRLBD-VP16 fusion protein in HeLa cells", "conditions": "cited from earlier work"}}, "note": "Where two headings read alike, the source gives them in different places.", "data": [{"smiles": "C[C@H]1C[C@@H]2[C@H]3CCC4=CC(=O)C=C[C@@]4(C)[C@]3(F)[C@H](O)C[C@@]2(C)[C@]1(O)C(=O)CSCCNC(=S)NCCNC(=O)c1cc(NC(=O)c2cc(NC(=O)c3nccn3C)cn2C)cn1C", "note": "[ImPy2-Et-Sdex (22), ImPy2-Et-Sdex]", "values": [{"measurement": "concentration at which maximum Luc induction was achieved", "setting": "[1]", "result": 6, "unit": "µM"}]}, {"smiles": "C[C@H]1C[C@@H]2[C@H]3CCC4=CC(=O)C=C[C@@]4(C)[C@]3(F)[C@H](O)C[C@@]2(C)[C@]1(O)C(=O)CSCCNC(=S)NCCNC(=O)c1cc(NC(=O)c2cc(NC(=O)c3cc(NC(=O)c4cc(NC(=O)CCCNC(=O)c5cc(NC(=O)c6cc(NC(=O)c7cc(NC(=O)c8nccn8C)cn7C)cn6C)cn5C)cn4C)cn3C)cn2C)cn1C", "note": "[ImPy7γ-Et-Sdex (16), ImPy7γ-Et-Sdex]", "values": [{"measurement": "Luc activity / cellular uptake (in words)", "setting": "[2]; MCF7 cells", "result": "modest improvement of cellular uptake"}, {"measurement": "Luc activity induction at 6 µM", "setting": "[1]; 6 µM", "result": "1,500 fold"}, {"measurement": "Luc activity induced (in words)", "setting": "[1]", "result": "higher levels compared to ImPy4γ-Et-Sdex (19)"}]}, {"smiles": "C[C@H]1C[C@@H]2[C@H]3CCC4=CC(=O)C=C[C@@]4(C)[C@]3(F)[C@H](O)C[C@@]2(C)[C@]1(O)C(=O)NCCNC(=O)c1cc(NC(=O)c2nccn2C)cn1C", "note": "[ImPy-Et-Oxdex (27), ImPy-Et-Oxdex]", "values": [{"measurement": "concentration at which maximum Luc induction was achieved", "setting": "[1]", "result": "~20", "unit": "µM"}]}, {"smiles": "CC(=O)NCCNC(=S)NCCSCC(=O)[C@@]1(O)[C@H](C)C[C@H]2[C@@H]3CCC4=CC(=O)C=C[C@]4(C)[C@@]3(F)[C@@H](O)C[C@@]21C", "note": "[Ac-Et-Sdex (15), Ac-Et-Sdex]", "values": [{"measurement": "EC50", "setting": "[2]", "result": 0.25, "unit": "µM"}, {"measurement": "concentration at which maximum Luc induction was achieved", "setting": "[2]; MCF7 cells", "result": 1, "unit": "µM"}, {"measurement": "maximum Luc induction", "setting": "[2]; MCF7 cells", "result": "1,200 fold"}, {"measurement": "concentration at which maximum Luc induction was achieved", "setting": "[1]", "result": 0.6, "unit": "µM"}]}, {"smiles": "C[C@H]1C[C@@H]2[C@H]3CCC4=CC(=O)C=C[C@@]4(C)[C@]3(F)[C@H](O)C[C@@]2(C)[C@]1(O)C(=O)NCCNC(=O)c1cc(NC(=O)c2cc(NC(=O)c3cc(NC(=O)c4cc(NC(=O)CCCNC(=O)c5cc(NC(=O)c6cc(NC(=O)c7cc(NC(=O)c8nccn8C)cn7C)cn6C)cn5C)cn4C)cn3C)cn2C)cn1C", "note": "[ImPy7γ-Et-Oxdex (24), ImPy7γ-Et-Oxdex]", "values": [{"measurement": "solubility", "setting": "[3]", "result": "≤ 10", "unit": "µM"}, {"measurement": "Luc induction at 10 µM, times lower than that of ImPy2-Et-Oxdex", "setting": "[1]", "result": 4, "unit": "times"}, {"measurement": "Luc induction at 10 µM, times lower than that of ImPy-Et-Oxdex", "setting": "[1]", "result": 7, "unit": "times"}]}, {"smiles": "C[C@@H]1C[C@H]2[C@@H]3CCC4=CC(=O)C=C[C@]4(C)[C@@]3(F)[C@@H](O)C[C@]2(C)[C@@]1(O)C(N)=O", "note": "[Oxdex-CONH2 (4), Oxdex-CONH2, reference compound]", "values": [{"measurement": "EC50", "setting": "[4]; read-out: EC50 of Luc induction, HeLa cells", "result": "35 ± 3", "unit": "µM"}]}, {"smiles": "C[C@H]1C[C@@H]2[C@H]3CCC4=CC(=O)C=C[C@@]4(C)[C@]3(F)[C@H](O)C[C@@]2(C)[C@]1(O)C(=O)CSCCNC(=S)NCCNC(=O)c1cc(NC(=O)c2cc(NC(=O)c3cc(NC(=O)c4cc(NC(=O)CCCNC(=O)c5cc(NC(=O)c6nccn6C)cn5C)cn4C)cn3C)cn2C)cn1C", "note": "[ImPy5γ-Et-Sdex (18), ImPy5γ-Et-Sdex]", "values": [{"measurement": "Luc activity induced (in words)", "setting": "[1]", "result": "higher levels compared to ImPy4γ-Et-Sdex (19)"}]}, {"smiles": "C[C@H]1C[C@@H]2[C@H]3CCC4=CC(=O)C=C[C@@]4(C)[C@]3(F)[C@H](O)C[C@@]2(C)[C@]1(O)C(=O)CSCCNC(=S)NCCNC(=O)c1cc(NC(=O)c2cc(NC(=O)c3cc(NC(=O)c4cc(NC(=O)CCCNC(=O)c5cc(NC(=O)c6cc(NC(=O)c7nccn7C)cn6C)cn5C)cn4C)cn3C)cn2C)cn1C", "note": "[ImPy6γ-Et-Sdex (17), ImPy6γ-Et-Sdex]", "values": [{"measurement": "Luc activity induced (in words)", "setting": "[1]", "result": "higher levels compared to ImPy4γ-Et-Sdex (19)"}]}, {"smiles": "C[C@@H]1C[C@H]2[C@@H]3CCC4=CC(=O)C=C[C@]4(C)[C@@]3(F)[C@@H](O)C[C@]2(C)[C@@]1(O)C(=O)CSCCNC(=S)NCCCN(C)CCCNC(=O)CCNC(=O)c1cc(NC(=O)c2cc(NC(=O)c3cc(NC(=O)c4cc(NC(=O)CCCNC(=O)c5cc(NC(=O)c6cc(NC(=O)c7cc(NC(=O)c8nccn8C)cn7C)cn6C)cn5C)cn4C)cn3C)cn2C)cn1C", "note": "[ImPy7γ-βDa-Sdex (6), ImPy7γ-βDa-Sdex]", "values": [{"measurement": "Luc activity induced (in words)", "setting": "[4]; cell-based functional assay", "result": "modest Luc activity"}]}, {"smiles": "C[C@H]1C[C@@H]2[C@H]3CCC4=CC(=O)C=C[C@@]4(C)[C@]3(F)[C@H](O)C[C@@]2(C)[C@]1(O)C(=O)CSCCNC(=S)NCCNC(=O)c1cc(NC(=O)c2cc(NC(=O)c3cc(NC(=O)c4nccn4C)cn3C)cn2C)cn1C", "note": "[ImPy3-Et-Sdex (21), ImPy3-Et-Sdex]", "values": [{"measurement": "Luc activity induced (in words)", "setting": "[1]", "result": "did not achieve the maximum induction at 6 µM"}]}, {"smiles": "C[C@H]1C[C@@H]2[C@H]3CCC4=CC(=O)C=C[C@@]4(C)[C@]3(F)[C@H](O)C[C@@]2(C)[C@]1(O)C(=O)CSCCNC(=S)NCCNC(=O)c1cc(NC(=O)c2cc(NC(=O)c3cc(NC(=O)c4cc(NC(=O)c5nccn5C)cn4C)cn3C)cn2C)cn1C", "note": "[ImPy4-Et-Sdex (20), ImPy4-Et-Sdex]", "values": [{"measurement": "Luc activity induced (in words)", "setting": "[1]", "result": "did not achieve the maximum induction at 6 µM"}]}, {"smiles": "C[C@H]1C[C@@H]2[C@H]3CCC4=CC(=O)C=C[C@@]4(C)[C@]3(F)[C@H](O)C[C@@]2(C)[C@]1(O)C(=O)CSCCNC(=S)NCCNC(=O)c1cc(NC(=O)c2cc(NC(=O)c3cc(NC(=O)c4cc(NC(=O)CCCNC(=O)c5nccn5C)cn4C)cn3C)cn2C)cn1C", "note": "[ImPy4γ-Et-Sdex (19), ImPy4γ-Et-Sdex]", "values": [{"measurement": "Luc activity induced (in words)", "setting": "[1]", "result": "lowest Luc activity among all Sdex conjugates"}]}, {"smiles": "CC(=O)NCCCN(C)CCCNC(=S)NCCSCC(=O)[C@@]1(O)[C@H](C)C[C@H]2[C@@H]3CCC4=CC(=O)C=C[C@]4(C)[C@@]3(F)[C@@H](O)C[C@@]21C", "note": "[Ac-Da-Sdex (28), Ac-Da-Sdex]", "values": [{"measurement": "concentration at which maximum Luc induction was achieved", "setting": "[1]", "result": 6, "unit": "µM"}, {"measurement": "maximum Luc induction", "setting": "[1]", "result": "3,000 fold"}]}, {"smiles": "C[C@H]1C[C@@H]2[C@H]3CCC4=CC(=O)C=C[C@@]4(C)[C@]3(F)[C@H](O)C[C@@]2(C)[C@]1(O)C(=O)CSCCNC(=S)NCCNC(=O)c1cc(NC(=O)c2cncn2C)cn1C", "note": "[ImPy-Et-Sdex (23), ImPy-Et-Sdex]", "values": [{"measurement": "EC50", "setting": "[2]", "result": 0.94, "unit": "µM"}, {"measurement": "maximum Luc induction", "setting": "[1]", "result": 3700, "unit": "fold"}]}, {"smiles": "C[C@H]1C[C@@H]2[C@H]3CCC4=CC(=O)C=C[C@@]4(C)[C@]3(F)[C@H](O)C[C@@]2(C)[C@]1(O)C(=O)NCCNC(=O)c1cc(NC(=O)c2cc(NC(=O)c3cc(NC(=O)c4nccn4C)cn3C)cn2C)cn1C", "note": "[ImPy3-Et-Oxdex (25), ImPy3-Et-Oxdex]", "values": [{"measurement": "solubility", "setting": "[3]", "result": "≤ 10", "unit": "µM"}, {"measurement": "Luc induction at 10 µM, times lower than that of ImPy2-Et-Oxdex", "setting": "[1]", "result": 4, "unit": "times"}, {"measurement": "Luc induction at 10 µM, times lower than that of ImPy-Et-Oxdex", "setting": "[1]", "result": 7, "unit": "times"}]}]}
